How the values were obtained:
Bmi-1 [1] = experiment: Sandwich ELISA Assay (Bmi-1 ELISA in HT-1080 cells); assay type: cell-based, human
How it was run: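 HT-1080 cells (8000/well) were treated with compounds in 0.5% final DMSO for 40-48 h at 37°C and then lysed. Bmi-1 in lysates was measured by sandwich ELISA: overnight capture at 4°C on mouse monoclonal, rabbit anti-Bmi-1 detection, HRP anti-rabbit, TMB. OD450 was read with an OD570 reference against a recombinant GST-Bmi-1 standard curve (0-8000 pg/mL).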

Bmi-1 [2] = experiment: Cell Model Assay: Bmi-1 expression in HT1080; assay type: cell-based, human; details: HT1080 (fibrosarcoma)
Protocol: (§1) Using assay conditions known to those skilled in the art, the ability of the compounds described herein to reduce Bmi-1 expression in HT1080 (fibrosarcoma), U87-MG (glioblastoma), T98G (glioblastoma), K562 (chronic myelogenous leukemia) and KG1 (acute myelogenous leukemia) cell lines was tested (at test compound concentrations calculated from the ELISA assay data shown in Example 1) compared to puromycin as a control to provide the EC50 values shown in Table 2. The term “ND” means that data was not determined.

Bmi-1 [3] = experiment: Cell Model Assay: Bmi-1 expression in K562; assay type: cell-based; details: K562 (chronic myelogenous leukemia)
Protocol: as §1

Bmi-1 [4] = experiment: Cell Model Assay: Bmi-1 expression in KG1; assay type: cell-based; details: KG1 (acute myelogenous leukemia)
Protocol: as §1

MCL-Jeko = experiment: Mantle Cell Lymphoma Assay: cytotoxicity, Jeko; assay type: cell-based; details: for Cell Concentration (×10^6): MCL-Jeko, 72 hrs
Excerpt: (§2) MCL cell lines Jeko, Mino, and Rec-1 were provided by American Type Culture Collection: The Bioresource Center (Manassas, Va.). […] Carlsbad, Calif.) in T-75 culture flasks. Cell concentration was maintained between 2 to 3×10^5 cells/mL. Early passage cells (passages 2-4) were used for all experiments. Ficoll-Histopaque density sedimentation (Sigma Aldrich) was used for separation of debris and purification of cell lines prior to experiments. […] The cytotoxic effect of test compounds on the MCL-cell lines was assessed by measuring cell concentration and cell viability using a Beckman Coulter Vi-Cell Counter. Controls and treated cells were harvested and counted at day 3.

MCL-Mino = experiment: Mantle Cell Lymphoma Assay: cytotoxicity, Mino; assay type: cell-based; details: for Cell Concentration (×10^6): MCL-Mino, 72 hrs
Excerpt: as §2

MCL-Rec1 = experiment: Mantle Cell Lymphoma Assay: cytotoxicity, Rec-1; assay type: cell-based; details: for Cell Concentration (×10^6): 72 hrs
Excerpt: as §2

MM cell line = experiment: Multiple Myeloma Assay; assay type: cell-based; details: 72 hrs in culture
Bmi-1 [5] = experiment: Cell Model Assay: Bmi-1 expression in U87-MG; assay type: cell-based; details: U87-MG (glioblastoma)
Protocol: as §1

Bmi-1 [6] = experiment: Cell Model Assay: Bmi-1 expression in T98G; assay type: cell-based; details: T98G (glioblastoma)
Protocol: as §1

[7] = dose 0.004 μM, 72 hrs in culture
[8] = dose 0.037 μM, 72 hrs in culture
[9] = dose 0.11 μM, 72 hrs in culture
[10] = dose 0.33 μM, 72 hrs in culture

COc1cc(Br)c(Nc2nc(-c3cnc4ccc(Cl)cn34)cs2)c(Br)c1 [Cpd 24, 4-(6-chloroimidazo[1,2-a]pyridine-3-yl)-N-(2,6-dibromo-4-methoxyphenyl)thiazol-2-amine]
IC50 (Bmi-1 [1]): < 500 nM
EC50 (Bmi-1 [2]): 310 nM
EC50 (Bmi-1 [3]): 76 nM
EC50 (Bmi-1 [4]): 120 nM
Cell Concentration (×10^6) (MCL-Jeko; 0.004 μM): 1.95 ± 0.04 ×10^6
Cell Concentration (×10^6) (MCL-Jeko; 0.037 μM): 1.94 ± 0.02 ×10^6
Cell Concentration (×10^6) (MCL-Jeko; 0.11 μM): 1.92 ± 0.01 ×10^6
Cell Concentration (×10^6) (MCL-Jeko; 0.33 μM): 1.80 ± 0.03 ×10^6
Cell Concentration (×10^6) (MCL-Jeko; 1 μM): 0.76 ± 0.27 ×10^6
Cell Concentration (×10^6) (MCL-Jeko; 3 μM): 0.14 ± 0.01 ×10^6
Cell Concentration (×10^6) (MCL-Mino; 0.004 μM): 0.63 ± 0.01 ×10^6
Cell Concentration (×10^6) (MCL-Mino; 0.037 μM): 0.63 ± 0.01 ×10^6
Cell Concentration (×10^6) (MCL-Mino; 0.11 μM): 0.62 ± 0.01 ×10^6
Cell Concentration (×10^6) (MCL-Mino; 0.33 μM): 0.55 ± 0.01 ×10^6
Cell Concentration (×10^6) (MCL-Mino; 1 μM): 0.28 ± 0.02 ×10^6
Cell Concentration (×10^6) (MCL-Mino; 3 μM): 0.05 ± 0.01 ×10^6
Cell Concentration (×10^6) (MCL-Rec1; MCL-Rec1, 0.004 μM): 0.36 ± 0.02 ×10^6
Cell Concentration (×10^6) (MCL-Rec1; MCL-Rec1, 0.037 μM): 0.34 ± 0.01 ×10^6
Cell Concentration (×10^6) (MCL-Rec1; MCL-Rec1, 0.11 μM): 0.34 ± 0.01 ×10^6
Cell Concentration (×10^6) (MCL-Rec1; MCL-Rec1, 0.33 μM): 0.31 ± 0.01 ×10^6
Cell Concentration (×10^6) (MCL-Rec1; MCL-Rec1, 1 μM): 0.06 ± 0.01 ×10^6
Cell Concentration (×10^6) (MCL-Rec1; MCL-Rec1, 3 μM): 0.01 ± 0.00 ×10^6
Cell Concentration, MM cell line (MM cell line; dose 0.004 μM): 1.37 ± 0.03 ×10^6
Cell Concentration, MM cell line (MM cell line; dose 0.037 μM): 1.38 ± 0.04 ×10^6
Cell Concentration, MM cell line (MM cell line; dose 0.11 μM): 1.23 ± 0.01 ×10^6
Cell Concentration, MM cell line (MM cell line; dose 0.33 μM): 0.59 ± 0.04 ×10^6
Cell Concentration, MM cell line (MM cell line; dose 1 μM): 0.34 ± 0.14 ×10^6
Cell Concentration, MM cell line (MM cell line; dose 3 μM): 0.17 ± 0.01 ×10^6

Cc1cc(Br)c(Nc2nc(-c3cnc4ccc(Cl)cn34)cs2)c(Br)c1 [Cpd 25, 4-(6-chloroimidazo[1,2-a]pyridine-3-yl)-N-(2,6-dibromo-4-methylphenyl)thiazol-2-amine]
IC50 (Bmi-1 [1]): < 500 nM
EC50 (Bmi-1 [3]): 100 nM
EC50 (Bmi-1 [4]): > 3000 nM

COc1cc(Cl)c(Nc2nc(-c3cnc4ccc(Cl)cn34)cs2)c(Cl)c1 [Cpd 26, 4-(6-chloroimidazo[1,2-a]pyridine-3-yl)-N-(2,6-dichloro-4-methoxyphenyl)thiazol-2-amine]
IC50 (Bmi-1 [1]): 1000 to 3000 nM
EC50 (Bmi-1 [3]): 234 nM
EC50 (Bmi-1 [4]): 317 nM

COc1cccc(Nc2nccc(-c3cnc4ccccn34)n2)c1 [Cpd 28, 4-(imidazo[1,2-a]pyridine-3-yl)-N-(3-methoxyphenyl)pyrimidin-2-amine]
IC50 (Bmi-1 [1]): < 500 nM
EC50 (Bmi-1 [3]): 261 nM
EC50 (Bmi-1 [4]): 48 nM

Cc1nc2ccc(Cl)cn2c1-c1csc(Nc2ccc(I)cc2)n1 [Cpd 29, 4-(6-chloro-2-methylimidazo[1,2-a]pyridin-3-yl)-N-(4-iodophenyl)thiazol-2-amine]
IC50 (Bmi-1 [1]): < 500 nM
EC50 (Bmi-1 [3]): 5 nM
EC50 (Bmi-1 [4]): 304 nM

Cc1nc2ccc(Cl)cn2c1-c1csc(Nc2ccc3c(c2)OCO3)n1 [Cpd 30, N-(benzo[d][1,3]dioxol-5-yl)-4-(6-chloro-2-methylimidazo[1,2-a]pyridin-3-yl)thiazol-2-amine]
IC50 (Bmi-1 [1]): < 500 nM
EC50 (Bmi-1 [2]): 4 nM
EC50 (Bmi-1 [3]): < 4 nM
EC50 (Bmi-1 [4]): 48 nM

Cc1nc2ncccn2c1-c1csc(Nc2ccc(I)cc2)n1 [Cpd 39, N-(4-iodophenyl)-4-(2-methylimidazo[1,2-a]pyrimidin-3-yl)-1,3-thiazol-2-amine]
IC50 (Bmi-1 [1]): < 500 nM
EC50 (Bmi-1 [2]): 5 nM
EC50 (Bmi-1 [5]): < 4 nM
EC50 (Bmi-1 [6]): < 4 nM

COCCOc1cc(Br)c(Nc2nc(-c3cnc4ccc(Cl)cn34)cs2)c(Br)c1 [Cpd 134, 4-(6-chloroimidazo[1,2-a]pyridin-3-yl)-N-[2,6-dibromo-4-(2-methoxyethoxy)phenyl]-1,3-thiazol-2-amine]
IC50 (Bmi-1 [1]): < 500 nM
Cell Concentration, MCL-Jeko (MCL-Jeko; [7]): 2.11 ± 0.04 ×10^6
viability at 0.004 µM (MCL-Jeko; dose 0.004 μM, 72 hrs in culture, read-out: Cell Viability, MCL-Jeko): 94.1 ± 0.23%
Cell Concentration, MCL-Jeko (MCL-Jeko; [8]): 2.11 ± 0.03 ×10^6
viability at 0.037 µM (MCL-Jeko; dose 0.037 μM, 72 hrs in culture, read-out: Cell Viability, MCL-Jeko): 94.37 ± 0.18%
Cell Concentration, MCL-Jeko (MCL-Jeko; [9]): 1.97 ± 0.11 ×10^6
viability at 0.11 µM (MCL-Jeko; dose 0.11 μM, 72 hrs in culture, read-out: Cell Viability, MCL-Jeko): 93.77 ± 0.15%
Cell Concentration, MCL-Jeko (MCL-Jeko; [10]): 1.95 ± 0.02 ×10^6
viability at 0.33 µM (MCL-Jeko; dose 0.33 μM, 72 hrs in culture, read-out: Cell Viability, MCL-Jeko): 93.67 ± 0.13%
Cell Concentration, MCL-Jeko (MCL-Jeko; dose 1 μM, 72 hrs in culture): 1.82 ± 0.05 ×10^6
viability at 1 µM (MCL-Jeko; dose 1 μM, 72 hrs in culture, read-out: Cell Viability, MCL-Jeko): 93.87 ± 0.06%
Cell Concentration, MCL-Jeko (MCL-Jeko; dose 3 μM, 72 hrs in culture): 1.81 ± 0.02 ×10^6
viability at 3 µM (MCL-Jeko; dose 3 μM, 72 hrs in culture, read-out: Cell Viability, MCL-Jeko): 92.4 ± 0.22%
viability at 0.004 µM (MCL-Mino; Homo sapiens, MINO, dose 0.004 μM, 72 hrs in culture, read-out: Cell Viability, MCL-Mino): 84.8 ± 0.7%
viability at 0.037 µM (MCL-Mino; Homo sapiens, MINO, dose 0.037 μM, 72 hrs in culture, read-out: Cell Viability, MCL-Mino): 86.2 ± 0.8%
viability at 0.11 µM (MCL-Mino; Homo sapiens, MINO, dose 0.11 μM, 72 hrs in culture, read-out: Cell Viability, MCL-Mino): 84.6 ± 0.5%
viability at 0.33 µM (MCL-Mino; Homo sapiens, MINO, dose 0.33 μM, 72 hrs in culture, read-out: Cell Viability, MCL-Mino): 83.8 ± 0.2%
viability at 1 µM (MCL-Mino; Homo sapiens, MINO, dose 1 μM, 72 hrs in culture, read-out: Cell Viability, MCL-Mino): 81.4 ± 0.8%
viability at 3 µM (MCL-Mino; Homo sapiens, MINO, dose 3 μM, 72 hrs in culture, read-out: Cell Viability, MCL-Mino): 79 ± 0.8%
Cell Concentration, MCL-Mino (MCL-Mino; [7]): 0.63 ± 0.01 ×10^6
Cell Concentration, MCL-Mino (MCL-Mino; [8]): 0.65 ± 0.01 ×10^6
Cell Concentration, MCL-Mino (MCL-Mino; [9]): 0.65 ± 0.01 ×10^6
Cell Concentration, MCL-Mino (MCL-Mino; [10]): 0.59 ± 0.01 ×10^6
Cell Concentration, MCL-Mino (MCL-Mino; dose 1 μM, 72 hrs in culture): 0.56 ± 0.02 ×10^6
Cell Concentration, MCL-Mino (MCL-Mino; dose 3 μM, 72 hrs in culture): 0.47 ± 0.02 ×10^6
viability at 0.004 µM (MCL-Rec1; Homo sapiens, Rec1, dose 0.004 μM, 72 hrs in culture, read-out: Cell Viability, MCL-Rec1): 89.43 ± 0.18%
viability at 0.037 µM (MCL-Rec1; Homo sapiens, Rec1, dose 0.037 μM, 72 hrs in culture, read-out: Cell Viability, MCL-Rec1): 88.9 ± 1%
viability at 0.11 µM (MCL-Rec1; Homo sapiens, Rec1, dose 0.11 μM, 72 hrs in culture, read-out: Cell Viability, MCL-Rec1): 90.2 ± 0.63%
viability at 0.33 µM (MCL-Rec1; Homo sapiens, Rec1, dose 0.33 μM, 72 hrs in culture, read-out: Cell Viability, MCL-Rec1): 88.63 ± 0.24%
viability at 1 µM (MCL-Rec1; Homo sapiens, Rec1, dose 1 μM, 72 hrs in culture, read-out: Cell Viability, MCL-Rec1): 88.43 ± 0.48%
viability at 3 µM (MCL-Rec1; Homo sapiens, Rec1, dose 3 μM, 72 hrs in culture, read-out: Cell Viability, MCL-Rec1): 86.67 ± 0.84%
Cell Concentration, MCL-Rec1 (MCL-Rec1; [7]): 0.84 ± 0.02 ×10^6
Cell Concentration, MCL-Rec1 (MCL-Rec1; [8]): 0.86 ± 0.02 ×10^6
Cell Concentration, MCL-Rec1 (MCL-Rec1; [9]): 0.90 ± 0.01 ×10^6
Cell Concentration, MCL-Rec1 (MCL-Rec1; [10]): 0.85 ± 0.02 ×10^6
Cell Concentration, MCL-Rec1 (MCL-Rec1; dose 1 μM, 72 hrs in culture): 0.78 ± 0.03 ×10^6
Cell Concentration, MCL-Rec1 (MCL-Rec1; dose 3 μM, 72 hrs in culture): 0.73 ± 0.02 ×10^6
Cell Concentration, MM cell line (MM cell line; dose 0.004 μM): 1.36 ± 0.01 ×10^6
viability at 0.004 µM (MM cell line; dose 0.004 μM): 91.17 ± 0.43%
Cell Concentration, MM cell line (MM cell line; dose 0.037 μM): 1.33 ± 0.01 ×10^6
viability at 0.037 µM (MM cell line; dose 0.037 μM): 90.27 ± 0.1%
Cell Concentration, MM cell line (MM cell line; dose 0.11 μM): 1.28 ± 0.01 ×10^6
viability at 0.11 µM (MM cell line; dose 0.11 μM): 87.93 ± 0.5%
Cell Concentration, MM cell line (MM cell line; dose 0.33 μM): 1.18 ± 0.04 ×10^6
viability at 0.33 µM (MM cell line; dose 0.33 μM): 86.1 ± 0.31%
Cell Concentration, MM cell line (MM cell line; dose 1 μM): 1.06 ± 0.01 ×10^6
viability at 1 µM (MM cell line; dose 1 μM): 83.47 ± 0.46%
Cell Concentration, MM cell line (MM cell line; dose 3 μM): 0.75 ± 0.03 ×10^6
viability at 3 µM (MM cell line; dose 3 μM): 76.5 ± 1.48%
